# Assay results published in US20220090096A1 (priority 2019, published 2022).
# Columns and labels:
# [1] = test system: catP reporter (Chloramphenicol Acetyl Transferase, CAT); format: cell-based, Clostridium sporogenes NCIMB 10696
# C. sporogenes = format: cell-based, Clostridium sporogenes; settings: theophylline 0.1-10 mM supplemented at time zero
# Description: For growth experiments, pre-cultures grown for 12 hours were diluted to a starting OD600 of 0.01 with fresh medium containing different concentrations of the inducer theophylline (0-10 mM). Because theophylline is dissolved in DMSO, appropriate quantities of DMSO were added to all the cultures to account for any effect DMSO might have on growth.
# Clostridium sporogenes = format: in vitro ADME; settings: 2 mM in TYG medium; up to 20 hours
# Description: To analyse if C. sporogenes consumes theophylline, 12 hour cultures were diluted to a staring OD600 of 0.01. At an OD600 of ≈0.5 cultures were induced with 2 mM theophylline. 1 mL samples were taken immediately and then at 2, 4, 6, 8, 10 and 20 hours after supplementation of theophylline. Samples were centrifuged for 10 min and 10000×g. Supernatants were used to determine the concentration of theophylline using an Alliance HT 2795 HPLC (Waters corporation) coupled to a Micromass Quattro LC Mass Spectrometer (Waters Wilmslow) in positive mode from m/z 70 to 500 for all samples at a scan rate of 1 cycle/s and equipped with an electrospray source. The general parameters were as follows: capillary voltage 2000 V, sampling cone 30 V, source temperature 130° C., desolvation temperature 350° C., cone gas flow 64 L/h and desolvation gas flow 621 L/h.
# Prior to ionization, chromatographic separation was achieved using a Supelco Ascentis Express HPLC column (100 mm×3 mm, 2.7 μM, Sigma Aldrich). The mobile phase consisted of (A) water with 0.1% v/v formic acid and (B) methanol with 0.1% v/v formic acid. […]
# As requisite of a good inducer, it was ascertained that theophylline is not metabolized by Clostridium sporogenes. […] The concentration of theophylline was monitored by HPLC/MS (high-performance liquid chromatography-mass spectrometry) analysis of cell-free supernatant samples over time.
smiles,measurement,setting,value
Cn1c(=O)c2[nH]cnc2n(C)c1=O [theophylline],dose dependency of gene expression,[1],higher levels of gene expression
same,concentrations resulting in a reduction of growth,C. sporogenes,higher than 5 mM
same,concentration of theophylline in cell-free supernatant over time,Clostridium sporogenes,remains constant
